In brackets after ≈: the same amount, converted by molar mass.
How the values were obtained:
HT29 = experiment: MTT antiproliferative assay, HT29 cells; type: cell-based; details: Homo sapiens, HT-29; for inhibition at 2 µg/mL: HT29, 2 μg/mL; for inhibition at 2 µg/mL / inhibition at 20 µg/mL: 48 h, MTT, read-out: Antiproliferative activity (growth inhibition, %); for inhibition at 20 µg/mL: HT29, 20 μg/mL; for IC50: HT29, MTT
Description: (§1) All the cells were seeded in 96-well plates and incubated with 5% CO2 at 37 °C for 24 h. Next, the compounds and the reference were dissolved into the culture medium. The final concentration of DMSO in the medium was less than 0.5%. After the cells were treated with compounds for 48 h, the supernatant was removed and 5 mg/mL of a fresh prepared solution of MTT was added to each well and incubated with the cells at 37 °C for another 4 h. The medium was removed, and 100 μL of testing solution was added to each well. After an overnight incubation with 5% CO2 at 37 °C, the absorbance was measured at 490/630 nm by the microplate reader. The IC50 was calculated using GraphPad Prism version 6.0 software (San Diego, CA, USA) from the non-linear curve.

HepG2 [1] = experiment: MTT antiproliferative assay, HepG2 cells; type: cell-based; details: Homo sapiens
Description: as §1

MCF-7 = experiment: MTT antiproliferative assay, MCF-7 cells; type: cell-based; details: Homo sapiens, MCF7; MCF-7, MTT
Description: as §1

A549 = experiment: MTT antiproliferative assay, A549 cells; type: cell-based; details: Homo sapiens; for inhibition at 2 µg/mL: A549, 2 μg/mL; for inhibition at 2 µg/mL / inhibition at 20 µg/mL: 48 h, MTT, read-out: Antiproliferative activity (growth inhibition, %); for inhibition at 20 µg/mL: A549, 20 μg/mL; for IC50: A549, MTT
Description: as §1

PC-3 = experiment: MTT antiproliferative assay, PC-3 cells; type: cell-based; details: Homo sapiens; PC-3, MTT
Description: as §1

ALK = ALK (Homo sapiens, UniProt Q9UM73); experiment: Kinase activity determination (ELISA), ALK; type: biochemical; details: purified ALK, 10 μmol/L ATP solution, read-out: Inhibitory effect on ALK activity, IC50
ALK, sequence (Q9UM73 19-1620): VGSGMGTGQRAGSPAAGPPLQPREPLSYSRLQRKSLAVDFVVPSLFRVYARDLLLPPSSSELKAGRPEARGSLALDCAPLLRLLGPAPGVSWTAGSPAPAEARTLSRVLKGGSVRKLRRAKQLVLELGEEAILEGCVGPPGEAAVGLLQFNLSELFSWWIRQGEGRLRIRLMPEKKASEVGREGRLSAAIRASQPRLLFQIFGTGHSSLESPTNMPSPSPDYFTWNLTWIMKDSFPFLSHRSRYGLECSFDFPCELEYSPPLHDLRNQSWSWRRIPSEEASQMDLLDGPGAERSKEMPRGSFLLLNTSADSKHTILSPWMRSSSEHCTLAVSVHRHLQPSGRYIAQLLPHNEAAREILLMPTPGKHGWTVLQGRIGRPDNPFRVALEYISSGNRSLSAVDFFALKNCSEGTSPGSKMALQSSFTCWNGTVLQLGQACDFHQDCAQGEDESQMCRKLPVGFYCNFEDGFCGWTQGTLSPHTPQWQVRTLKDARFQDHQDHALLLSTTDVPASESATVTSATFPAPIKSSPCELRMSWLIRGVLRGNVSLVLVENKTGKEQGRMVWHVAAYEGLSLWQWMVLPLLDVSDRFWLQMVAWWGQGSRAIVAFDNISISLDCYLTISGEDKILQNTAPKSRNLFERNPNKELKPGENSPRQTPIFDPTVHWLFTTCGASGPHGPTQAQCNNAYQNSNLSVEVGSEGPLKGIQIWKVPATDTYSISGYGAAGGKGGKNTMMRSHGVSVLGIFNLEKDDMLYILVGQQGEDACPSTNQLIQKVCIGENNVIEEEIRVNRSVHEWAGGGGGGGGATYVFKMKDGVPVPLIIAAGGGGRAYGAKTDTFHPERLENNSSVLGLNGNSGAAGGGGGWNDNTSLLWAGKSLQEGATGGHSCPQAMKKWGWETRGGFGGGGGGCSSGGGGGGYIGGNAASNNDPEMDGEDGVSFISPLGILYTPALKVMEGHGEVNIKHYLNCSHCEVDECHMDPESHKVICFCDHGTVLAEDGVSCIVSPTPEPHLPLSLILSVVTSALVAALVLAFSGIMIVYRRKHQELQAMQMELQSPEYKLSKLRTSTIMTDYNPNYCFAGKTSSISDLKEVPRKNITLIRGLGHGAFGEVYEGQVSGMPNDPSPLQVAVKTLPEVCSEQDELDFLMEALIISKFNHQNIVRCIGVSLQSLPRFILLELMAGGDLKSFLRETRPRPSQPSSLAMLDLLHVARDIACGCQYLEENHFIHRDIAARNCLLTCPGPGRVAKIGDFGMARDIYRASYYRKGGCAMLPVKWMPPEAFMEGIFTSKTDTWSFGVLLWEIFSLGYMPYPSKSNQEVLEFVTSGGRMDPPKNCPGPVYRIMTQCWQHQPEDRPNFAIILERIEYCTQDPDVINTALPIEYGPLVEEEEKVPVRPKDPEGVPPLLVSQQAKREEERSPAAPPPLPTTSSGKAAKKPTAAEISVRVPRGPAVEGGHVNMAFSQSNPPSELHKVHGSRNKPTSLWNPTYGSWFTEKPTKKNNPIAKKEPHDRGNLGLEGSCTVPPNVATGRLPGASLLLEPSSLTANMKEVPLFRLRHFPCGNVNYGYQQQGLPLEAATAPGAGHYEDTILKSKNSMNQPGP
Description: The effects of the compounds on the activities of the tyrosine kinase was determined using enzyme-linked immunosorbent assay (ELISA). Briefly, 20 μg/mL substrate [poly (Glu,Tyr)4:1], 50 μL aliquot of 10 μmol/L ATP solution diluted in kinase buffer (50 mmol/L HEPES pH 7.5, 50 mmol/L MgCl2, 0.5 mmol/L MnCl2, 0.2 mmol/L Na3VO4, and 1 mmol/L DTT) was added to each well; 1 μL of various concentrations of target compound and positive control drug diluted in 1% DMSO (v/v) were then added to each well. 1% DMSO was used as the negative control. After 5–10 min preincubation, the kinase reaction was initiated by the addition of purified ALK proteins diluted in 49 μL of kinase buffer. After 30 min preincubation, the anti-phosphotyrosine monoclonalantibody (100 μL; 1:500, diluted in 5 mg/mL BSA T-PBS) was then added. […] A 100 μL aliquot of a solution containing 0.03% H2O2 and 2 mg/mL o-phenylenediamine in 0.1 mol/L citrate buffer was added. The reaction was terminated by the addition of 50 μL of 2 mol/L H2SO4 as the color changed, and the plate was analyzed using a multi-well spectrophotometer at 490 nm.

Karpas299 = experiment: MTT antiproliferative assay, Karpas299 cells; type: cell-based; details: Homo sapiens, KARPAS-299
Description: as §1

LO2 cells = experiment: MTT cytotoxicity assay, non-tumorigenic liver LO2 cell; type: cell-based; details: 0.064–40.0 μg/mL, 48 h, Figure 8
Description: Given the mentioned results, the most efficient compound 3j was selected for in depth study, and it was evaluated in different concentrations (0.064–40.0 μg/mL) towards HepG2 cell line and non-tumorigenic liver LO2 cell. A 48 h continuous drug exposure protocol was employed by the MTT cytotoxicity assay.
as §1

HepG2 [2] = experiment: MTT antiproliferative assay, HepG2 cells; type: cell-based, human; details: five concentrations, 24, 48 or 72 h, Figure 7

melting point	IC50 (HT29)	IC50 (HepG2 [1])	IC50 (MCF-7)	IC50 (A549)	IC50 (PC-3)	IC50 (ALK)	IC50 (Karpas299)	SMILES	inhibition at 2 µg/mL (HT29)	inhibition at 20 µg/mL (HT29)	inhibition at 2 µg/mL (A549)	inhibition at 20 µg/mL (A549)	Toxic action towards LO2 cells (LO2 cells)	Inhibition of proliferation of HepG2 cell, concentration and time dependence (HepG2 [2])
239.1 to 240.7 °C	3.19 µg/mL (≈ 4.85 µM)	5.55 µg/mL (≈ 8.44 µM)	5.26 µg/mL (≈ 8 µM)	2.81 µg/mL (≈ 4.27 µM)	5.96 µg/mL (≈ 9.06 µM)	121 nM	5.59 µg/mL (≈ 8.5 µM)	CC1(C)C2CC[C@]3(C)[C@H](C(=O)C=C4[C@@H]5C[C@@](C)(C(=O)O)CC[C@]5(C)CC[C@]43C)[C@@]2(C)CC[C@@H]1OC(=O)Nc1cccc(C(F)(F)F)c1 (stereo partly drawn) [3j, 3β-(((3-(trifluoromethyl)phenyl)carbamoyl)oxy)-11-oxo-olean-12-en-30-oic acid]	24.8%	99.6%	17.7%	88.3%	did not exhibit significant toxic action	inhibited the proliferation of HepG2 cell in a significant concentration manner, whereas it did not occur in a time-dependent manner
248.8 to 251.7 °C	6.47 µg/mL (≈ 8.91 µM)	11.2 µg/mL (≈ 15.5 µM)	7 µg/mL (≈ 9.64 µM)	2.93 µg/mL (≈ 4.04 µM)	10.3 µg/mL (≈ 14.2 µM)	278 nM	9.16 µg/mL (≈ 12.6 µM)	CC1(C)C2CC[C@]3(C)[C@H](C(=O)C=C4[C@@H]5C[C@@](C)(C(=O)O)CC[C@]5(C)CC[C@]43C)[C@@]2(C)CC[C@@H]1OC(=O)Nc1cc(C(F)(F)F)cc(C(F)(F)F)c1 (stereo partly drawn) [3k, 3β-(((3,5-bis (trifluoromethyl)phenyl)carbamoyl)oxy)-11-oxo-olean-12-en-30-oic acid]	10.8%	94.8%	18.8%	88.8%	–	–

From PMC6803848, “Exploring New Structural Features of the 18β-Glycyrrhetinic Acid Scaffold for the Inhibition of Anaplastic Lymphoma Kinase” (Molecules, 2019)
